pIC50: −log10 of the molar value.

Data on 12 compounds can be found in US11104690B2, “Indazole derivatives useful as inhibitors of diacylglyceride O-acyltransferase 2” (Merck Sharp & Dohme Corp., priority 2016, dated 2021).

Chain of Human DGAT2 (Q96PD7 whole entry): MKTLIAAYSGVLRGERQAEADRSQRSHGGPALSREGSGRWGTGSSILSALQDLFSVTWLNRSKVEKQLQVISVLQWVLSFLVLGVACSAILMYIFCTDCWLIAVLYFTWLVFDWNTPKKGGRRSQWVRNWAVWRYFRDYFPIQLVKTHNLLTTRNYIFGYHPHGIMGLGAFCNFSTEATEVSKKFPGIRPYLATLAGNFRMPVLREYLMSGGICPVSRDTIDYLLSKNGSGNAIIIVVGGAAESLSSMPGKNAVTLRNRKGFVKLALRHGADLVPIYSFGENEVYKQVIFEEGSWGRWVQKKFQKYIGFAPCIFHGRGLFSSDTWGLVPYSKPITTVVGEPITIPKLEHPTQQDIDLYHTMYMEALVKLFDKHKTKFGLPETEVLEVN

In the experiment the target is Human DGAT2 (Homo sapiens (Human), UniProt Q96PD7). Briefly: DGAT2 Enzymatic Activity Assay (triolein formation, LC/MS/MS). Format: biochemical. Conditions: hDGAT2 Sf-9 membrane prep; 25 μM diolein, 10 μM oleoyl-CoA; room temperature. Summed up:
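Triolein product, measured by LC/MS/MS as a ratio to internal standard, gave % inhibition and 4-parameter IC50. Reaction: 25 μM diolein, 10 μM oleoyl-CoA, 10 ng/μL hDGAT2 Sf-9 membrane, 100 mM Tris.Cl pH 7.0, 20 mM MgCl2, 5% ethanol, room temperature.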
With `O=C(NC1(c2ccc(Br)cc2)CC(O)C1)c1ccc2c(-c3ccccc3Cl)nn(-c3ccc(F)cc3)c2c1` (stereo not drawn) [Example 108, N-[1-(4-bromophenyl)-3-hydroxycyclobutyl]-3-(2-chlorophenyl)-1-(4-fluorophenyl)-1H-indazole-6-carboxamide], the pIC50 is 6.41. The value for `CC(c1cc(-c2ccccc2)[nH]n1)N(C)C(=O)c1ccc2c(-c3ccccc3Cl)nn(-c3ccc(F)cc3)c2c1` (racemic) [Example 27, 3-(2-chlorophenyl)-1-(4-fluorophenyl)-N-methyl-N-[1-(5-phenyl-1H-pyrazol-3-yl)ethyl]-1H-indazole-6-carboxamide] was 6.52; that for `CN(C)S(=O)(=O)CCNC(=O)c1ccc2c(-c3ccccc3Cl)nn(-c3ccc(F)cc3)c2c1` [Example 25, 3-(2-chlorophenyl)-N-[2-(dimethylsulfamoyl)ethyl]-1-(4-fluorophenyl)-1H-indazole-6-carboxamide] was 6.25; that for `NC(=O)c1ccc(Cl)c(-c2nn(-c3ccc(F)cc3)c3cc(C(=O)NC4CCS(=O)(=O)C4)ccc23)c1` (single isomer, unassigned) [Example 122-A, 3-(5-carbamoyl-2-chlorophenyl)-N-(1,1-dioxidotetrahydrothiophen-3-yl)-1-(4-fluorophenyl)-1H-indazole-6-carboxamide] was 7.02.

The compound `COC(=O)c1ccc(-n2nc(-c3ccccc3Cl)c3ccc(C(=O)NC4(C)CCS(=O)(=O)C4)cc32)cc1` (racemic) [Example 187, methyl 4-{3-(2-chlorophenyl)-6-[(3-methyl-1,1-dioxidotetrahydrothiophen-3-yl)carbamoyl]-1H-indazol-1-yl}benzoate] had a negative logarithm of the IC50 (pIC50) of 6.19.

`O=C1CC(NC(=O)c2ccc3c(-c4ccccc4Cl)nn(-c4ccc(F)cc4)c3c2)C1` [Example 104, 3-(2-chlorophenyl)-1-(4-fluorophenyl)-N-(3-oxocyclobutyl)-1H-indazole-6-carboxamide] showed a pIC50 of 6.74. The figure for `C[C@@H](NC(=O)c1ccc2c(-c3ccccc3Cl)nn(-c3ccc(F)cc3)c2c1)[C@H](O)c1ccccc1` [Example 107, 3-(2-chlorophenyl)-1-(4-fluorophenyl)-N-[(1R,2R)-2-hydroxy-1-methyl-2-phenylethyl]-1H-indazole-6-carboxamide] is 6.52. As for `CC(C)(C)OC(=O)N1CC[C@H](NC(=O)c2ccc3c(-c4ccccc4Cl)nn(-c4ccc(F)cc4)c3c2)C1` [Example 100, tert-butyl (3S)-3-({[3-(2-chlorophenyl)-1-(4-fluorophenyl)-1H-indazol-6-yl]carbonyl}amino)pyrrolidine-1-carboxylate], the pIC50 is 7.92. The value for `CN(C)C(=O)c1cccc(-c2nn(-c3ccc(F)cc3)c3cc(C(=O)NC4(C)CCS(=O)(=O)C4)ccc23)c1` (racemic) [Example 148, 3-[3-(dimethylcarbamoyl)phenyl]-1-(4-fluorophenyl)-N-(3-methyl-1,1-dioxidotetrahydrothiophen-3-yl)-1H-indazole-6-carboxamide] was 6.07; that for `CC1(NC(=O)c2ccc3c(-c4ccc(Cl)nc4F)nn(-c4ccc(F)cc4)c3c2)CCS(=O)(=O)C1` (single isomer, unassigned) [Example 152-A, 3-(6-chloro-2-fluoropyridin-3-yl)-1-(4-fluorophenyl)-N-(3-methyl-1,1-dioxidotetrahydrothiophen-3-yl)-1H-indazole-6-carboxamide] was 8.35; that for `C[C@H](NC(=O)c1ccc2c(-c3ccccc3Cl)nn(-c3ccc(F)cc3)c2c1)c1ccc(C(F)(F)F)nc1` [Example 13, 3-(2-chlorophenyl)-1-(4-fluorophenyl)-N-{(1S)-1-[6-(trifluoromethyl)pyridin-3-yl]ethyl}-1H-indazole-6-carboxamide] was 7.32. The value for `CC1(NC(=O)c2ccc3c(-c4cccc(C#N)c4)nn(-c4ccc(F)cc4)c3c2)CCS(=O)(=O)C1` (stereo not drawn) [Example 117, 3-(3-cyanophenyl)-1-(4-fluorophenyl)-N-(3-methyl-1,1-dioxidotetrahydrothiophen-3-yl)-1H-indazole-6-carboxamide] was 8.15.
